Measurements taken from patent US20240209022A1, “NOVEL PEPTIDE HAVING ANTI-INFLAMMATORY AND TISSUE REGENERATIVE ACTIONS” (KOREA RESEARCH INSTITUTE OF BIOSCIENCE AND BIOTECHNOLOGY, priority 2020, published 2024).

Columns and labels:
[1] = system: non-alcoholic hepatitis model; assay: High-fat diet-induced non-alcoholic steatohepatitis model, liver gene expression; format: in vivo, C57BL/6J mice; conditions: RT-qPCR; vs PBS buffer group
Method: A non-alcoholic hepatitis model was induced by feeding a high-fat diet to 8-week-old SPF male C57BL/6J mice. The experiment for groups administered with Amuc_1409 and PEP001 to PEP005 was performed as follows. Mice fed a high-fat diet for 45 weeks were fed a high-fat diet for an additional 3 weeks, and Amuc_1409 was dissolved in PBS buffer at a concentration of 2.4 μM and then orally administered to the mice by 150 μL per animal at the same time once a day until the end of the experiment, or mice fed a high-fat diet for 8 weeks were fed a high-fat diet for an additional 3 weeks, and PEP001, PEP002, PEP003, PEP004, or PEP005 was dissolved in PBS buffer at a concentration of 2.4 μM and then orally administered to the mice by 150 μL per animal at the same time once a day until the end of the experiment. To the control group, PBS buffer was orally administered in the same manner. The experiment for groups administered with PEP006 to PEP013 was performed as follows. The non-alcoholic hepatitis model was induced by ad libitum feeding of a high-fat diet for 32, 50, or 53 weeks. Mice fed a high-fat diet for 50 weeks were fed a high-fat diet for an additional 3 weeks, and a novel tetrapeptide PEP006, PEP007, PEP008, PEP009, or PEP010 was dissolved in PBS buffer at a concentration of 0.2 μg/150 μL and then orally administered to the mice by 150 μL per animal at the same time until the end of the test, and mice fed a high-fat diet for 53 weeks were fed a high-fat diet for an additional 3 weeks, and a novel […] PEP011, PEP012, or PEP013 was dissolved in PBS buffer at a concentration of 0.2 μg/150 μL and then orally administered to the mice by 150 μL per animal at the same time until the end of the test. To the control group, PBS buffer was orally administered in the same manner. At the end of the experiment, a part of the liver harvested was homogenized with Trizol to extract RNA. Reverse transcriptase was added to the obtained RNA and reacted to synthesize cDNA, and SYBR Green and primers were added to perform quantitative real-time PCR (RT-qPCR), and then the expression levels of genes such as Tnfα, Il-1β, Il-10, and Il-1rn were quantified.

small intestine organoid = assay: Small intestine organoid sprouting; format: cell-based, C57BL/6J mice; conditions: 16 nM on days 0, 2, 4; day 5 of culture; vs PBS buffer
Method: In order to establish a small intestine organoid model, the small intestine of 15-week-old male C57BL/6J mice was cut longitudinally from the proximal end to the distal end, and cut transversely into about 5 mm long pieces. The small intestine tissue thus obtained was washed with refrigerated PBS containing 1% penicillin. Thereafter, the washed small intestine tissue was treated with dissociation buffer and filtered through a cell strainer to isolate crypts. The isolated crypt was cultured in Matrigel and Organoid Growth Medium (Intesticult™) mixed at a ratio of 1:1, Matrigel was solidified at 37° C. for 20 minutes in a 12 well plate, and then medium (500 μL/well) was added. The medium was replaced after 4 days, and subculture was performed on day 7.
For novel peptide screening, organoids 3D cultured in medium and Matrigel support were dispensed into 3 wells per group using a 12-well plate and 50 organoids per well. On days 0, 2, and 4 of culture, the organoids were treated with novel tetrapeptides PEP006, PEP007, PEP008, PEP009, and PEP010 and novel tripeptides PEP011, PEP012, and PEP013 at a concentration of 16 nM as described above, and the number of lobes of sprouted organoids on day 5 of culture was examined and analyzed for comparison. The control group was treated with PBS buffer in the same manner.

[2] = system: full-thickness skin defect wound-induced model; assay: Full-thickness skin defect wound-induced model (tail); format: in vivo, C57BL/6J mice; conditions: 120 μM, 25 μL applied once a day for 28 days; vs vehicle
Method: In order to confirm the tissue regeneration efficacy of the novel peptides, an experiment was conducted using a wound-induced model induced by a full-thickness skin defect of mouse's tail. For a full-thickness skin defect wound-induced model, 9-week-old specific pathogen free (SPF) male C57BL/6J mice were anesthetized, and then in order to indicate full-thickness wounding, a full-thickness wound with a size of 10 mm×3 mm was made on the dorsal part of the mouse's tail, about 1.0 cm away from the base of the mouse's tail, using an aseptic dissection mass No. 10. Bleeding was stopped by compressing the wound, and the wound was covered with a film spray dressing (Cavilon, 3M). For 28 days from the day of wound induction, Amuc_1409 or PEP001 to PEP013 were each dissolved in vehicle (50% ethanol, 20% propylene glycol, 30% water) at a concentration of 120 μM and then applied to the wound site by 25 μL per animal once a day. For the control group, the same volume of vehicle (50% ethanol, 20% propylene glycol, 30% water) was applied to the wound site. The test was terminated on day 29 after wound induction. In order to observe the wound healing effect, the wound sites of animals in each test group were individually photographed using a digital camera at a constant height from the wound for 28 days at 7-day intervals from the day of wound induction, and the wound area was measured using the Image J Soft program.

[3] = system: TPA-induced dermatitis model; assay: TPA-induced dermatitis (ear) model; format: in vivo, C57BL/6J mice; conditions: vs PBS buffer group; for ear thickness / ear weight / erythema and swelling of the ear (macro photograph): 26 hours after TPA application
Method: As a dermatitis model, one day before sample application, both ears of 8-week-old male C57BL/6J mice were shaved, 2.5 μg of TPA (12-otetrade-canoyl-phorbol-13-acetate) dissolved in 25 μL acetone was applied to the right ear of the mouse to induce skin swelling and inflammation, and the left ear was coated with 25 μL of acetone, which is a TPA solvent, and used as a negative control. From 3 days before TPA application, Amuc_1409 or PEP001 to PEP013 were each dissolved in PBS buffer at a concentration of 6.7 μM, and then injected into the abdominal cavity of mice by 150 μL per animal once a day at the same time. On day 3 (0 days) after administration of the peptide, the peptide was injected intraperitoneally one time 30 minutes before TPA application, and the drug was additionally injected intraperitoneally 3 hours after TPA injection. Into the control group, the same volume of PBS buffer was intraperitoneally injected, and the experiment was terminated 26 hours after TPA application. 26 hours after TPA application, the ear thickness was measured and photographs of both ears for each test group were taken in order to examine the degree of swelling and inflammation relief in the ears. After the test animal was sacrificed, the weight per area of the ear was measured, the ears of mice were fixed in 10% neutral buffered formalin at room temperature for 24 hours or more, and then embedded in paraffin to prepare 5 μm-thick sections, and the sections were stained with hematoxylin and eosin (H&E). The degrees of swelling of the ear and inflammatory cell infiltration were examined by observing the H&E-stained tissue section under an optical microscope.

AIS [PEP013]
Ifnγ gene expression in liver tissue [1]: tended to decrease | Il-1p gene expression in liver tissue [1]: significantly decreased | number of lobes of sprouted organoids (small intestine organoid): significantly increased | wound area [2]: significantly decreased | wound size (visually confirmed) [2]: rapidly decreased

AVSSIKGAY (PEP001)
11-10, which is an anti-inflammatory index (liver gene expression) [1]: significantly increased | Il-1p gene expression in liver tissue [1]: decreased close to a significant level | wound area [2]: significantly decreased | wound size (visually confirmed) [2]: rapidly decreased | ear thickness [3]: significantly decreased | ear weight [3]: significantly decreased | erythema and swelling of the ear (macro photograph) [3]: significantly reduced

GAY [PEP005]
11-10, which is an anti-inflammatory index (liver gene expression) [1]: significantly increased | Il-1p gene expression in liver tissue [1]: significantly decreased | Tnfα gene expression in liver tissue [1]: significantly decreased | wound area [2]: significantly decreased | wound size (visually confirmed) [2]: rapidly decreased | ear thickness [3]: significantly decreased | ear weight [3]: significantly decreased | erythema and swelling of the ear (macro photograph) [3]: significantly reduced

AQS [PEP011]
Ifnγ gene expression in liver tissue [1]: tended to decrease | Il-1p gene expression in liver tissue [1]: tended to decrease | number of lobes of sprouted organoids (small intestine organoid): significantly increased | wound area [2]: significantly decreased | wound size (visually confirmed) [2]: rapidly decreased

VGAY (PEP010)
Ifnγ gene expression in liver tissue [1]: tended to decrease | Il-1p gene expression in liver tissue [1]: significantly decreased | Il-6 gene expression in liver tissue [1]: tended to decrease | Tnfα gene expression in liver tissue [1]: tended to decrease | number of lobes of sprouted organoids (small intestine organoid): significantly increased | wound area [2]: significantly decreased | wound size (visually confirmed) [2]: rapidly decreased

KGAY (PEP003)
11-10, which is an anti-inflammatory index (liver gene expression) [1]: significantly increased | Il-1p gene expression in liver tissue [1]: significantly decreased | Tnfα gene expression in liver tissue [1]: significantly decreased | wound area [2]: significantly decreased | wound size (visually confirmed) [2]: rapidly decreased | ear thickness [3]: significantly decreased | ear weight [3]: significantly decreased | erythema and swelling of the ear (macro photograph) [3]: significantly reduced

AVSSI (PEP002)
11-10, which is an anti-inflammatory index (liver gene expression) [1]: tended to increase close to a significant level | Il-1p gene expression in liver tissue [1]: significantly decreased | wound area [2]: significantly decreased | wound size (visually confirmed) [2]: rapidly decreased | ear thickness [3]: significantly decreased | ear weight [3]: significantly decreased | erythema and swelling of the ear (macro photograph) [3]: significantly reduced

AVS (AVSSIKGAY) [PEP004]
11-10, which is an anti-inflammatory index (liver gene expression) [1]: significantly increased | Il-1p gene expression in liver tissue [1]: decreased close to a significant level | Tnfα gene expression in liver tissue [1]: significantly decreased | wound area [2]: significantly decreased | wound size (visually confirmed) [2]: rapidly decreased | ear thickness [3]: significantly decreased | ear weight [3]: significantly decreased | erythema and swelling of the ear (macro photograph) [3]: significantly reduced

AGS [PEP012]
Il-1p gene expression in liver tissue [1]: tended to decrease | number of lobes of sprouted organoids (small intestine organoid): significantly increased

B1: Amuc_1409: SEQ ID NO: 15, functional fragment obtained by eliminating the leader sequence from SEQ ID NO: 14; protein derived from Akkermansia muciniphila (protein)
chain: IPESSVPAAAVSSIKGAYPNAGPIEWDSEMHGMERIYEAEFRINGFQFDVKIAPDGKIVRIKEEIAASSLPEAVRASVLKRYPGCRIKEAEKITEGELVRYKVEVADSRDDYDVLIAPDGNILHVDR
modifications: Amuc_1409_fragment
notes: protein derived from Akkermansia muciniphila
11-10, which is an anti-inflammatory index (liver gene expression) [1]: significantly increased | Il-1p gene expression in liver tissue [1]: significantly decreased | Il-1rn, additional anti-inflammatory index (liver gene expression) [1]: significantly increased | wound area [2]: significantly decreased | wound size (visually confirmed) [2]: rapidly decreased | ear thickness [3]: tended to decrease | ear weight [3]: significantly decreased | erythema and swelling of the ear (macro photograph) [3]: reduced overall | ear tissue swelling and inflammatory cell infiltration (H&E) [3]: significantly reduced
